Reference: patent US20240116985A1, “STAPLED PEPTIDES AND METHODS THEREOF” (priority 2020, published 2024)
pIC50: −log10 of the molar value. ≈ marks a conversion by molar mass, not a printed value. Where two headings read alike, the source gives them in different places.

Key:
Solubility in PBS = assay type: physicochemical
Method in brief: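 Read-out is the HPLC peak area of the supernatant from ultracentrifuged PBS solution, scaled against a 50 μM peptide DMSO injection; value reported as [(PBS area)/(DMSO area)]*50 uM.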

[1] = target: T1, full-length beta-Catenin (Uniprot ID P35222) (Homo sapiens, UniProt P35222); test: Fluorescence polarization IC50 (beta-catenin / 5FAM-TCF4 10-53 competition); assay type: binding
T1 construct: 10 nM full-length beta-Catenin (Uniprot ID P35222)
T1 sequence (P35222 1-781): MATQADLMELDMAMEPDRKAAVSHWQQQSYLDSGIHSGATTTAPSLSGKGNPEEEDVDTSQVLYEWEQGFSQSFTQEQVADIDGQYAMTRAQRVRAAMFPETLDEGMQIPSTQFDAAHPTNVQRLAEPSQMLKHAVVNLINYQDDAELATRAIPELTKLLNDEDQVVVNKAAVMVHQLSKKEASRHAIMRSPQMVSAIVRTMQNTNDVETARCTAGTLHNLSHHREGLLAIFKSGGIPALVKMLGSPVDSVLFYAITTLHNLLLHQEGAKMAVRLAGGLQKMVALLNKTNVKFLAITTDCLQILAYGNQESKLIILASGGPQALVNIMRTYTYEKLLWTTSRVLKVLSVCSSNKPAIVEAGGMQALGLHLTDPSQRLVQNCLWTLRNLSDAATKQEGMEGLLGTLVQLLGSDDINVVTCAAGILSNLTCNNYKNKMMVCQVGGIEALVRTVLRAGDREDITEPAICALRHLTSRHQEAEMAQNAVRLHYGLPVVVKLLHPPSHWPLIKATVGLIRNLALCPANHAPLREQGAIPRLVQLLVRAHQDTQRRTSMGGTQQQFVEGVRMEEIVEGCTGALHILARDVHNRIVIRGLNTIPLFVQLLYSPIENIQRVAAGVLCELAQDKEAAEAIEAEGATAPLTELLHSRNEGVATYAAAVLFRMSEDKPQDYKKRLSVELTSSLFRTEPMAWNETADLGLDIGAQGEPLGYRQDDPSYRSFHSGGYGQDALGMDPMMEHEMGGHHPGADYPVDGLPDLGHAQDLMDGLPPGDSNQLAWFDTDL

[2] = target: T2, beta-catenin/TCF4 engagement (Homo sapiens, UniProt P35222); test: Nano-BRET target engagement assay (B-cat-Halo & TCF4-Luc in HEK293 cells); assay type: cell-based; conditions: for inhibition at 10 µM: read-out: NanoBRET % inh @ 10 uM
T2 construct: expressed in transfected cells; host or cells: HEK293
T2 sequence (P35222 1-781): T1 sequence (P35222 1-781)

CHI Log D procedure = assay type: physicochemical; conditions: for chromatographic logD: pH 7.4, CHI Log D; for CHI Log D: pH 7.4
[3] = fluorescence polarization, read-out: beta-Catenin FP IC50
[4] = absolute IC50, read-out: NanoBRET Abs IC50

Solubility (Solubility in PBS; Solubility (uM)) [µM]	pIC50 ([1]; read-out: beta-Catenin FP IC50)	chromatographic logD (CHI Log D procedure)	Solubility (Solubility in PBS) [µM]	pIC50 [1, 3]	pIC50 ([1]; read-out: FP EC50)	pIC50 [2, 4]	CHI Log D (CHI Log D procedure)	SMILES	also measured
42 (≈ 83.6 µg/mL)	7.74	2.29						CC(=O)N1CCC[C@]12CC=CCCCC1(CCCC=CCCCOC(=O)N3CC[C@@](C(=O)N[C@@H](Cc4ccccc4Cl)C(=O)N[C@@H](Cc4csc5ccccc45)C(=O)N[C@@H](CCC(N)=O)C(N)=O)(C3)NC(=O)[C@H](CO)NC(=O)[C@H](Cc3ccccc3)NC(=O)[C@H](C)NC(=O)[C@H](C)NC(=O)[C@H](CC(=O)O)NC(=O)[C@H](CC(=O)O)NC1=O)NC(=O)[C@H](Cc1cccc3ccccc13)NC(=O)[C@H](CC(=O)O)NC2=O (stereo partly drawn) [I-1108, Ac-PL3-Asp-1NapA-B5-Asp-Asp-Ala-Ala-Phe-Ser-PyrS2-2C1F-BztA-Gln-NH2]	pIC50 ([2]; read-out: NanoBRET Abs IC50): < 4.70
			47 (≈ 91.2 µg/mL)	7.70	7.70	4.82	2.121	CC[C@H](C)[C@@H]1NC(=O)[C@H](CC(=O)O)NC(=O)[C@]2(CC=CCCCC3(CCCC=CCCCCCC[C@@](C)(C(=O)N[C@@H](Cc4ccccc4)C(=O)N[C@@H](Cc4csc5ccccc45)C(=O)N[C@@H](CCC(N)=O)C(N)=O)NC(=O)[C@H](CCC(N)=O)NC(=O)[C@H](Cc4ccccc4)NC(=O)[C@H](C)NC(=O)[C@H](CCC(N)=O)NC(=O)[C@H](CCC(=O)O)NC(=O)[C@H](CC(=O)O)NC3=O)NC1=O)CCCN2C(C)=O (stereo partly drawn) [I-654, Ac-PL3-Asp-Ile-B5-Asp-Glu-Gln-Ala-Phe-Gln-S8-Phe-BztA-Gln-NH2]	
			48 (≈ 87.7 µg/mL)	7.37	7.37	5.13	2.441	CC(=O)N1CCC[C@]12CC=CCCCC1(CCCC=CCCCCCC[C@@](C)(C(=O)N[C@@H](Cc3ccccc3)C(=O)N[C@@H](Cc3csc4ccccc34)C(=O)N[C@@H](CO)C(N)=O)NC(=O)[C@H](CC(N)=O)NC(=O)[C@H](Cc3ccccc3)NC(=O)[C@H](C)NC(=O)[C@H](C)NC(=O)[C@H](CCC(=O)O)NC(=O)[C@H](CC(=O)O)NC1=O)NC(=O)[C@H](CC(C)C)NC(=O)[C@H](CC(=O)O)NC2=O (stereo partly drawn) [I-750, Ac-PL3-Asp-Leu-B5-Asp-Glu-Ala-Ala-Phe-Asn-S8-Phe-BztA-Ser-NH2]	
47 (≈ 90.9 µg/mL)	8.10	2.13						CC(=O)N1CCC[C@]12CC=CCCCC1(CCCC=CCCCOC(=O)N3CC[C@@](C(=O)N[C@@H](Cc4ccccc4Cl)C(=O)N[C@@H](Cc4csc5ccccc45)C(=O)N[C@@H](CCC(N)=O)C(N)=O)(C3)NC(=O)[C@H]([C@@H](C)O)NC(=O)[C@H](Cc3ccccc3)NC(=O)[C@H](C)NC(=O)[C@H](C)NC(=O)[C@H](CC(=O)O)NC(=O)[C@H](CC(=O)O)NC1=O)NC(=O)[C@H](CC(C)(C)C)NC(=O)[C@H](CC(=O)O)NC2=O (stereo partly drawn) [I-1013, Ac-PL3-Asp-Npg-B5-Asp-Asp-Ala-Ala-Phe-Thr-PyrS2-2C1F-BztA-Gln-NH2]	pIC50 ([2]; read-out: NanoBRET Abs IC50): 4.91
37 (≈ 72.9 µg/mL)	8.30	2.04						CC(=O)N1CCC[C@]12CC=CCCCC1(CCCC=CCCCOC(=O)N3CC[C@@](C(=O)N[C@@H](Cc4ccsc4)C(=O)N[C@@H](Cc4csc5ccccc45)C(=O)N[C@@H](Cc4c[nH]cn4)C(N)=O)(C3)NC(=O)[C@H](CCCNC(N)=O)NC(=O)[C@H](Cc3ccccc3)NC(=O)[C@H](C)NC(=O)[C@H](C)NC(=O)[C@H](CC(=O)O)NC(=O)[C@H](CC(=O)O)NC1=O)NC(=O)[C@H](CC(C)(C)C)NC(=O)[C@H](CC(=O)O)NC2=O (stereo partly drawn) [I-806, Ac-PL3-Asp-Npg-B5-Asp-Asp-Ala-Ala-Phe-Cit-PyrS2-3Thi-BztA-His-NH2]	pIC50 ([2]; read-out: NanoBRET Abs IC50): 4.67
		1.91	50 (≈ 96.1 µg/mL)	7.52		< 4.70		CC[C@H](C)[C@@H]1NC(=O)[C@H](CC(=O)O)NC(=O)[C@]2(CC=CCCCC3(CCCC=CCCCCCC[C@@](C)(C(=O)N[C@@H](Cc4ccccc4C(N)=O)C(=O)N[C@@H](Cc4csc5ccccc45)C(=O)N[C@@H](Cc4c[nH]cn4)C(N)=O)NC(=O)[C@H](CC(N)=O)NC(=O)[C@H](Cc4ccccc4)NC(=O)[C@H](C)NC(=O)[C@H](C)NC(=O)[C@H](CCC(=O)O)NC(=O)[C@H](CC(=O)O)NC3=O)NC1=O)CCCN2C(C)=O (stereo partly drawn) [I-514, Ac-PL3-Asp-Ile-B5-Asp-Glu-Ala-Ala-Phe-Asn-S8-2CBMF-BztA-His-NH2]	
			49 (≈ 91.9 µg/mL)	7.59	7.59	4.77	2.329	CC(=O)N1CCC[C@]12CC=CCCCC1(CCCC=CCCCCCC[C@@](C)(C(=O)N[C@@H](Cc3ccsc3)C(=O)N[C@@H](Cc3csc4ccccc34)C(=O)N[C@@H](CCC(N)=O)C(N)=O)NC(=O)[C@H](CC(N)=O)NC(=O)[C@H](Cc3ccccc3)NC(=O)[C@H](C)NC(=O)[C@H](C)NC(=O)[C@H](CC(=O)O)NC(=O)[C@H](CC(=O)O)NC1=O)NC(=O)[C@H](CC(C)(C)C)NC(=O)[C@H](CC(=O)O)NC2=O (stereo partly drawn) [I-678, Ac-PL3-Asp-Npg-B5-Asp-Asp-Ala-Ala-Phe-Asn-S8-3Thi-BztA-Gln-NH2]	
18 (≈ 34.5 µg/mL)	7.25	2.42						CC(=O)N1CCC[C@]12CC=CCCCC1(CCCC=CCCCOC(=O)N3CC[C@@](C(=O)N[C@@H](Cc4ccsc4)C(=O)N[C@@H](Cc4csc5ccccc45)C(=O)N[C@@H](CCC(N)=O)C(N)=O)(C3)NC(=O)[C@H](CC(N)=O)NC(=O)[C@H](Cc3ccccc3)NC(=O)[C@H](C)NC(=O)[C@H](C)NC(=O)[C@H](CC(C)C)NC(=O)[C@H](CC(=O)O)NC1=O)NC(=O)[C@H](CC(C)(C)C)NC(=O)[C@H](CC(=O)O)NC2=O (stereo partly drawn) [I-846, Ac-PL3-Asp-Npg-B5-Asp-Leu-Ala-Ala-Phe-Asn-PyrS2-3Thi-BztA-Gln-NH2]	pIC50 ([1]; fluorescence polarization, beta-catenin, read-out: FP EC50): 7.46; inhibition at 10 µM ([2]; HEK293, 10 uM): 4.3%
	8.10	1.75						CC(=O)N1CCC[C@]12CC=CCCCC1(CCCC=CCCCOC(=O)N3CC[C@@](C(=O)N[C@@H](Cc4ccsc4)C(=O)N[C@@H](Cc4csc5ccccc45)C(=O)N[C@@H](CCC(N)=O)C(=O)N[C@@H](CCCCNC(=O)CN4CCN(C)CC4)C(N)=O)(C3)NC(=O)[C@H](CC(N)=O)NC(=O)[C@H](Cc3ccccc3)NC(=O)[C@H](C)NC(=O)[C@H](C)NC(=O)[C@H](CC(=O)O)NC(=O)[C@H](CC(=O)O)NC1=O)NC(=O)[C@H](CC(C)(C)C)NC(=O)[C@H](CC(=O)O)NC2=O (stereo partly drawn) [I-906, Ac-PL3-Asp-Npg-B5-Asp-Asp-Ala-Ala-Phe-Asn-PyrS2-3Thi-BztA-Gln-MePipAc Lys-NH2]	solubility at 15 min (Solubility in PBS; Solubility (uM)): 46 µM (≈ 101 µg/mL); pIC50 ([2]; read-out: NanoBRET IC50): < 4.70
	8.30	2.19	10 (≈ 19.3 µg/mL)			4.55		CC(=O)N1CCC[C@]12CC=CCCCC1(CCCC=CCCCOC(=O)N3CC[C@@](C(=O)N[C@@H](Cc4ccccc4Cl)C(=O)N[C@@H](Cc4csc5ccccc45)C(=O)N[C@@H](CO)C(N)=O)(C3)NC(=O)[C@H](CC(N)=O)NC(=O)[C@H](Cc3ccccc3)NC(=O)[C@H](C)NC(=O)[C@H](C)NC(=O)[C@H](CC(=O)O)NC(=O)[C@H](CC(=O)O)NC1=O)NC(=O)[C@H](Cc1ccccc1)NC(=O)[C@H](CC(=O)O)NC2=O (stereo partly drawn) [I-1047, Ac-PL3-Asp-Phe-B5-Asp-Asp-Ala-Ala-Phe-Asn-PyrS2-2C1F-BztA-Ser-NH2]	
		2.39	50 (≈ 94.2 µg/mL)	7.52				CC[C@H](C)[C@@H]1NC(=O)[C@H](CC(=O)O)NC(=O)[C@]2(CC=CCCCC3(CCCC=CCCCCCC[C@@](C)(C(=O)N[C@@H](Cc4ccccc4)C(=O)N[C@@H](Cc4csc5ccccc45)C(=O)N[C@@H](CCC(N)=O)C(N)=O)NC(=O)[C@H](CCC(N)=O)NC(=O)[C@H](Cc4ccccc4)NC(=O)[C@H](C)NC(=O)[C@H](C)NC(=O)[C@H](CCC(=O)O)NC(=O)[C@H](CC(=O)O)NC3=O)NC1=O)CCCN2C(C)=O (stereo partly drawn) [I-407, Ac-PL3-Asp-Ile-B5-Asp-Glu-Ala-Ala-Phe-Gln-S8-Phe-BztA-Gln-NH2]	inhibition at 10 µM ([2]; HEK293, @ 10 uM): 55.1%
			49 (≈ 89.5 µg/mL)	7.44	7.44	4.48	2.116	CC[C@@H]1NC(=O)[C@H](CC(=O)O)NC(=O)[C@]2(CC=CCCCC3(CCCC=CCCCCCC[C@@](C)(C(=O)N[C@@H](Cc4ccccc4)C(=O)N[C@@H](Cc4csc5ccccc45)C(=O)N[C@@H](CCC(N)=O)C(N)=O)NC(=O)[C@H](CC(N)=O)NC(=O)[C@H](Cc4ccccc4)NC(=O)[C@H](C)NC(=O)[C@H](C)NC(=O)[C@H](CC(=O)O)NC(=O)[C@H](CC(=O)O)NC3=O)NC1=O)CCCN2C(C)=O (stereo partly drawn) [I-573, Ac-PL3-Asp-Abu-B5-Asp-Asp-Ala-Ala-Phe-Asn-S8-Phe-BztA-Gln-NH2]	
